In patent publication US4370330A, “Method of enhancing circulation with piperazines” (Merz & Company, priority 1979, dated 1983):
Counter-ions that a name gives are not always drawn. Like-named read-outs stand apart in the source and are kept apart here.

Legend:
[1] = system: cerebrovascular resistance; experiment: cerebrovascular resistance on the rabbit (Hutten and Vaupel), decrease in vascular resistance after arterial application; format: in vivo; details: for inhibition in vivo at 1 %: Oryctolagus cuniculus, read-out: ΔR % (relative decrease in vascular resistance)
Method: The therapeutic effect is expressed in terms of decrease in vascular resistance.
For this purpose 0.1 ml of a 1% solution of the test substance, i.e., according to the invention, was administered to the rabbit by arterial application. The decrease in vascular resistance (R) and the relative decrease in vascular resistance (ΔR%) were recorded and expressed in mm Hg min/l or in the valid S.I. unit k Pa min/ml, i.e., absolute decrease of resistance x time.
The activity of this compound was tested by means of the aforementioned method.

[2] = in vivo
Excerpt: The calculation of the therapeutic indices was based on the

[3] = acute toxicity after oral application, LD50; details: in vivo
Excerpt: The therapeutic range of the substances according to the invention can again be described as excellent, since the LD50 values lie in a favorable range, as is shown by the results of acute toxicity tests on the mouse after oral application.

[4] = in vivo; remark: listed apart in the source
[5] = Table 2; mean effective dose
[6] = Table 1, rabbit, 0.1 ml of a 1% solution, arterial application
[7] = Table 4, rabbit, 0.1 ml of a 1% solution, arterial application
[8] = mouse, po, read-out: Acute toxicity LD50, 24 h
[9] = mouse, po, read-out: Acute toxicity LD50, 14 days
[10] = Table 3, mouse oral, 24 h, read-out: Acute toxicities LD50, 24 h
[11] = Table 3, mouse oral, 14 days, read-out: Acute toxicities LD50, 14 days

SMILES	inhibition in vivo at 1 % [1, 6] [%]	Absolute decrease of vascular resistance R [1, 6]	LD50 ([2]; iv) [mg/kg]	LD50 at 24 h [3, 10] [mg/kg]	LD50 at 336 h [3, 11] [mg/kg]	selectivity ratio ([4]; iv)	ED50 [5]	other results
C(=C\c1ccccc1)/CN1CCN(C(c2ccccc2)c2ccccc2)CC1 [Cinnarizine, reference compound]	19.3	2,9 mm Hg min/l						Absolute decrease in vascular resistance R [1, 7]: 2.9 mm Hg min/l
COc1cc(CN2CCN(c3ccc(C)c(C)c3)CC2)cc(OC)c1OC [Example 1]								LD50 [2]: 260 mg/kg; inhibition in vivo at 1 % [1, 7]: 24.3%; LD50 at 24 h [3, 8]: 348 mg/kg; LD50 at 336 h [3, 9]: 263 mg/kg; selectivity ratio [4]: 13000
COc1cc(CN2CCN(c3ccc(Cl)c(C(F)(F)F)c3)CC2)cc(OC)c1OC [Example 2]								LD50 [2]: 283 mg/kg; inhibition in vivo at 1 % [1, 7]: 26.3%; LD50 at 24 h [3, 8]: 328 mg/kg; LD50 at 336 h [3, 9]: 283 mg/kg; selectivity ratio [4]: 3150
COc1cc(CN2CCN(c3ccc4c(c3)OCO4)CC2)cc(OC)c1OC [Example 3]								LD50 [2]: 297 mg/kg; inhibition in vivo at 1 % [1, 7]: 22%; LD50 at 24 h [3, 8]: 312 mg/kg; LD50 at 336 h [3, 9]: 296 mg/kg; selectivity ratio [4]: 2700
COc1cc(CN2CCN(c3cc(OC)c(OC)c(OC)c3)CC2)cc(OC)c1OC [Example 4]								LD50 [2]: 350 mg/kg; inhibition in vivo at 1 % [1, 7]: 21.5%; LD50 at 24 h [3, 8]: 348 mg/kg; LD50 at 336 h [3, 9]: 348 mg/kg; selectivity ratio [4]: 7000
COc1cc(CN2CCN(c3cc(C(F)(F)F)cc(C(F)(F)F)c3)CC2)cc(OC)c1OC [Example 5]								LD50 [2]: 280 mg/kg; inhibition in vivo at 1 % [1, 7]: 20.6%; LD50 at 24 h [3, 8]: 300 mg/kg; LD50 at 336 h [3, 9]: 280 mg/kg; selectivity ratio [4]: 5600
COc1cc(CN2CCN(c3c(C)cccc3C)CC2)cc(OC)c1OC [Example 6]								LD50 [2]: 265 mg/kg; inhibition in vivo at 1 % [1, 7]: 23%; LD50 at 24 h [3, 8]: 348 mg/kg; LD50 at 336 h [3, 9]: 265 mg/kg; selectivity ratio [4]: 3800
COc1cc(CN2CCN(c3ccccc3)CC2)cc(OC)c1OC.Cl [Example 21, N-(3,4,5-trimethoxy-benzyl)-N'-phenyl-piperazine hydrochloride]								Absolute decrease of vascular resistance R ([1]; Hutten and Vaupel rabbit test): 3.0 mm. Hg. min/l; circulation stimulant activity (in words) ([1]; Hutten and Vaupel rabbit test): circulation stimulant; decrease of vascular resistance (ΔR %) ([1]; Hutten and Vaupel rabbit test): 23.2%; LD50 at 24 h ([3]; mouse, oral, 24 hours, read-out: oral acute toxicity (LD50) after 24 hours): 320 mg/kg; LD50 at 336 h ([3]; mouse, oral, fourteen days, read-out: oral acute toxicity (LD50) after fourteen days): 265 mg/kg
COc1cccc(N2CCN(Cc3cc(OC)c(OC)c(OC)c3)CC2)c1.Cl [m. Methoxy-, N-(3,4,5-trimethoxy-benzyl)-N'-(3-methoxyphenyl)-piperazine hydrochloride]	28.5	3,0 mm Hg min/l	850	411	285	2010	0,42 mg/kg	
COc1cc(CN2CCN(c3cccc(C)c3)CC2)cc(OC)c1OC.Cl [m. Methyl-, N-(3,4,5-trimethoxy-benzyl)-N'-(3-methylphenyl)-piperazine hydrochloride]	22	3,2 mm Hg min/l	700	452	310	1520	0,46 mg/kg	
COc1cc(CN2CCN(c3ccccc3Cl)CC2)cc(OC)c1OC.Cl.Cl [o. Chloro-, N-(3,4,5-trimethoxy-benzyl)-N'-(2-chlorophenyl)-piperazine dihydrochloride]	27.9	3,0 mm Hg min/l	810	295	255	2130	0,38 mg/kg	
CCOc1ccccc1N1CCN(Cc2cc(OC)c(OC)c(OC)c2)CC1.Cl.Cl [o. Ethoxy-, N-(3,4,5-trimethoxy-benzyl)-N'-(2-ethoxyphenyl)-piperazine dihydrochloride]	20.4	2,85 mm Hg min/l	900	411	266	1990	0,45 mg/kg	
CCc1ccccc1N1CCN(Cc2cc(OC)c(OC)c(OC)c2)CC1.Cl.Cl [o. Ethyl-, N-(3,4,5-trimethoxy-benzyl)-N'-(2-ethylphenyl)-piperazine dihydrochloride]	21.7	3,0 mm Hg min/l	900	456	311	2240	0,40 mg/kg	
COc1cc(CN2CCN(c3ccccc3F)CC2)cc(OC)c1OC.Cl [o. Fluoro-, N-(3,4,5-trimethoxy-benzyl)-N'-(2-fluorophenyl)-piperazine hydrochloride]	23	3,0 mm Hg min/l	920			2280	0,40 mg/kg	
COc1ccccc1N1CCN(Cc2cc(OC)c(OC)c(OC)c2)CC1.Cl.Cl [o. Methoxy-, N-(3,4,5-trimethoxy-benzyl)-N'-(2-methoxyphenyl)-piperazine dihydrochloride]	22.2	2,94 mm Hg min/l	1150			2750	0,42 mg/kg	
COc1cc(CN2CCN(c3ccccc3C)CC2)cc(OC)c1OC [o. Methyl-, N-(3,4,5-trimethoxybenzyl)-N'-(2-methylphenyl)-piperazine]	24.5	3,3 mm Hg min/l	700	457	311	1450	0,48 mg/kg	
COc1cc(CN2CCN(c3ccccc3[N+](=O)[O-])CC2)cc(OC)c1OC.Cl [o. Nitro-, N-(3,4,5-trimethoxy-benzyl)-N'-(2-nitrophenyl)-piperazine hydrochloride]	20.6	3,1 mm Hg min/l	650	274	201	1300	0,50 mg/kg	
COc1cc(CN2CCN(c3ccc(F)cc3)CC2)cc(OC)c1OC.Cl [p. Fluoro-, N-(3,4,5-trimethoxy-benzyl)-N'-(4-fluorophenyl)-piperazine hydrochloride]	26.4	4,6 mm Hg min/l	580	350	275	1570	0,37 mg/kg	
COc1cc(CN2CCN(c3ccc(O)cc3)CC2)cc(OC)c1OC.Cl [p. Hydroxy-, N-(3,4,5-trimethoxy-benzyl)-N'-(4-hydroxyphenyl)-piperazine hydrochloride]	19.5	2,8 mm Hg min/l	1260	306	245	2800	0,45 mg/kg	
COc1ccc(N2CCN(Cc3cc(OC)c(OC)c(OC)c3)CC2)cc1.Cl.Cl [p. Methoxy-, N-(3,4,5-trimethoxy-benzyl)-N'-(4-methoxyphenyl)-piperazine dihydrochloride]		3,90 mm Hg min/l	910			3050	0,30 mg/kg	inhibition in vivo at 1 % [1]: 27.8%
COc1cc(CN2CCN(c3ccc(C)cc3)CC2)cc(OC)c1OC [p. Methyl-, hydrochloride]	23	3,3 mm Hg min/l	720	459	312	1630	0,44 mg/kg	
